This assay concerns the target CDK2/cyclinE kinase (Homo sapiens, UniProt P24941). Nature of the assay: CDK2/cyclinE kinase phosphorylation of Rb-biotinylated peptide, scintillation plates. In kind it is biochemical. The settings on record: read-out: CDK2 % inhib at 10 μM. Here is the method:
The inhibition of the CDK2/cyclinE kinase is evaluated by measuring the phosphorylation of the peptide substrate Rb-biotinylated, detected by […], in 96-well scintillation plates (Flashplates) coated with streptavidin.
Each point is assayed in duplicate.
Sequence of the Rb-biotinylated peptide: Biotin-[…]-OH
Protocol: • 1. Preparation of the substrate: fresh solution at 1 mg/ml in PBS. • 2. Introduce 4 μg per well into the scintillation plate. • 3. Incubate for 2 hours at ambient temperature. • 4. Prepare series of dilutions at 1 mM, 300 μM, 100 μM, 30 μM and 10 μM in DMSO from a stock solution of inhibitor at 10 mM in DMSO. • 5. Wash the scintillation plate with 3 times 300 μl of PBS to remove the unbound peptide substrate. • 6. Add the CDK2/cyclinE kinase: 200 ng per well, in 90 μl of kinase buffer (with the exception of the “without enzyme” control wells). • 7. Add the test inhibitor to each of the wells, at a final concentration for 100 μl of 10 μM, 3 μM, 1 μM, 0.3 μM and 0.1 μM. • 8. Agitate the scintillation plate gently for 1 minute. • 9. Incubate for 30 minutes on ice. • 10. Initiate the reaction with 10 μl of kinase buffer having a final concentration per well of 1 μM of cold ATP and of 1 μCi of ATP-^33P. • 11. […] Indirect measurement of the radioactivity corresponding to the incorporation of ATP-^33P, originating from the kinase, into the phosphorylation site of Rb. […]

Consider two molecules from patent US6858638B2, “Substituted indazoles, compositions containing them, method of production and use” (Aventis Pharma S.A., priority 2002, dated 2005).

Regarding `Nc1n[nH]c2ccc(NS(=O)(=O)c3cccc(F)c3)cc12` [Example 26, N-(3-Amino-1H-indazol-5-yl)-3-fluorobenzenesulfonamide], the inhibition at 10 µM was 39%. In the case of `CS(=O)(=O)c1ccccc1S(=O)(=O)Nc1ccc2[nH]nc(-c3ccc(Cl)cc3)c2c1` [Example 30, N-[3-(4-Chlorophenyl)-1H-indazol-5-yl]-2-methylsulfonylbenzenesulfonamide] it was 73%.
